Assay results reported in patent US20260184726A1, “HETEROCYCLIC COMPOUNDS AS KINASE INHIBITORS, COMPOSITIONS, AND METHODS OF USE THEREOF” (JS INNOMED HOLDINGS LTD., priority 2022, published 2026).
pIC50: −log10 of the molar value.

How the values were obtained:
BAF3-KIF5B-RET cells = target: T1, BAF3-KIF5B-RET cells (Homo sapiens, UniProt P07949); assay: BAF3-KIF5B-RET Cell Proliferation Assay (CellTiter-Glo); format: cell-based; conditions: growth inhibition, 72 hours; Table 2; read-out: BA/F3-KIF5B-RET Cellular activity
T1 construct: fused on or other part: P33176 (Kinesin-1 heavy chain)
Procedure, shortened: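 Ba/F3 cells driven by KIF5B-RET (wild-type, V804M or G810R) or TEL-RET-M918T, 2,000 per well in RPMI/10% FBS, attached 24 h. Treated 72 h at 37° C with compound from 0.00015 to 1 μM final, 0.1% DMSO. CellTiter-Glo luminescence relative to DMSO wells gave IC50.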

human Aurora B kinase = target: T2, human Aurora B kinase (Homo sapiens, UniProt Q96GD4); assay: Aurora B Kinase Assay (mobility shift assay, ATP at Km); format: biochemical; conditions: 15 μM ATP (Km), read-out: AurB Enzymatic Activity
T2 construct: purchased Carna 05-102
Experimental: Compounds were tested by Mobility shift assay with ATP concentration at Km. The assay used human Aurora B kinase (Carna 05-102). Test compounds were prepared and diluted in DMSO in 3-fold serial dilutions to 50× of the final testing concentrations. The compounds were then further diluted to 5× by the kinase reaction buffer (50 mM HEPES pH 7.5, 0.0015% Brij-35). The enzymatic reaction for compound testing was performed in a white 384-well polypropylene plate (Corning 3573) with a total reaction volume of 25 μl containing 9 nM Aurora B, 3 μM peptide substrate FAM-P21 (GL Biochem 116370), and 15 μM ATP (Sigma A7699-1G). The assay started with loading Aurora B diluted in kinase reaction buffer to wells, followed by addition of equal volume of 5× compounds for 15-min incubation at the room temperature for pre-treatment. The enzymatic reaction was initiated by addition of mixture of the substrate and ATP prepared in kinase reaction buffer. After incubation at 28° C. for one hour, 25 μl of stopper buffer (a mixture of 100 mM HEPES pH 7.5 buffer, 0.015% Brij-35, 50 mM EDTA and 0.2% of coating reagent 3 (Cliper Lifesciences)). After 30 minutes of incubation at room temperature, the plate was read in a Caliper. Percent of control was calculated as the percentage of compound-treated vs 2% DMSO vehicle-treated. The dose-response curves were generated and the IC50 values were calculated by nonlinear sigmoid curve fitting using XLFit.

human KDR kinase = target: T3, human KDR kinase (Homo sapiens, UniProt P35968); assay: KDR Kinase Assay (mobility shift assay, ATP at Km); format: biochemical; conditions: 92 μM ATP (Km), read-out: KDR Enzymatic Activity
T3 construct: purchased Carna 08-191
Experimental: Compounds were tested by Mobility shift assay with ATP concentration at Km. The assay used human KDR kinase (Carna 08-191). Test compounds were prepared and diluted in DMSO in 3-fold serial dilutions to 50× of the final testing concentrations. The compounds were then further diluted to 5× by the kinase reaction buffer (50 mM HEPES pH 7.5, 0.0015% Brij-35). The enzymatic reaction for compound testing was performed in a white 384-well polypropylene plate (Corning 3573) with a total reaction volume of 25 μl containing 1.2 nM KDR, 3 μM peptide substrate FAM-P22 (GL Biochem 112393), and 92 μM ATP (Sigma A7699-1G). The assay started with loading RET diluted in kinase reaction buffer to wells, followed by addition of equal volume of 5× compounds for 15-min incubation at the room temperature for pre-treatment. The enzymatic reaction was initiated by addition of mixture of the substrate and ATP prepared in kinase reaction buffer. After incubation at 28° C. for one hour, 25 μl of stopper buffer (a mixture of 100 mM HEPES pH 7.5 buffer, 0.015% Brij-35, 50 mM EDTA and 0.2% of coating reagent 3 (Cliper Lifesciences)). After 30 minutes of incubation at room temperature, the plate was read in a Caliper. Percent of control was calculated as the percentage of compound-treated vs 2% DMSO vehicle-treated. The dose-response curves were generated and the IC50s were calculated by nonlinear sigmoid curve fitting using XLFit.

T1 sequence (P07949 whole entry, change not shown, the tested form may be a part): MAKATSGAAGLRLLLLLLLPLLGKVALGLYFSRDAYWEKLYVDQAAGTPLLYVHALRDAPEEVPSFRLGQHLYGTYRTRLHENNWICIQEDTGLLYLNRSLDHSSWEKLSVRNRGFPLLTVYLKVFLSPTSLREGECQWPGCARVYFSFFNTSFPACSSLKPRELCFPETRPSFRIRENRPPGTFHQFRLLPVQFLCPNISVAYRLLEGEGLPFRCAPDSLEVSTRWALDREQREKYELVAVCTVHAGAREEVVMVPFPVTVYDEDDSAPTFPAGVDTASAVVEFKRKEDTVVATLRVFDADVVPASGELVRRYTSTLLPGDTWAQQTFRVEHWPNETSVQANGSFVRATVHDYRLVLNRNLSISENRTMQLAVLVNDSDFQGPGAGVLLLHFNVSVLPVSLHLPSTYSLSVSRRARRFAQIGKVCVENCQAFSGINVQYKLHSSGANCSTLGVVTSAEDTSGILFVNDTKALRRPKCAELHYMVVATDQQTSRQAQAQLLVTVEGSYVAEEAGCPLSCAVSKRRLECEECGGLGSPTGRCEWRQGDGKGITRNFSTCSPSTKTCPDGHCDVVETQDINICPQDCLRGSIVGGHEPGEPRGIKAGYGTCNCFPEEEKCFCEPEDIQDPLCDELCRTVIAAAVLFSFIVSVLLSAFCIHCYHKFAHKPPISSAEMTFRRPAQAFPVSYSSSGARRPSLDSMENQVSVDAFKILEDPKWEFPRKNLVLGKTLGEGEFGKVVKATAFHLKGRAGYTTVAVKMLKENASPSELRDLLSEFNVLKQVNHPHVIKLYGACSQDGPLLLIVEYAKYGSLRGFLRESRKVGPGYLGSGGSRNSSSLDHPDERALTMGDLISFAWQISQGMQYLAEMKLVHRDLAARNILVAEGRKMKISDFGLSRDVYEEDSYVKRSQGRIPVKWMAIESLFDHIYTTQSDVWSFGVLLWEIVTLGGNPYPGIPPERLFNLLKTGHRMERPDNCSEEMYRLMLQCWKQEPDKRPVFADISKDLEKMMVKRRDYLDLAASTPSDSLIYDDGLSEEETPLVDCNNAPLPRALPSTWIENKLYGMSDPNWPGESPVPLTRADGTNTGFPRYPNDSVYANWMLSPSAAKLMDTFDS
T2 sequence (Q96GD4 whole entry): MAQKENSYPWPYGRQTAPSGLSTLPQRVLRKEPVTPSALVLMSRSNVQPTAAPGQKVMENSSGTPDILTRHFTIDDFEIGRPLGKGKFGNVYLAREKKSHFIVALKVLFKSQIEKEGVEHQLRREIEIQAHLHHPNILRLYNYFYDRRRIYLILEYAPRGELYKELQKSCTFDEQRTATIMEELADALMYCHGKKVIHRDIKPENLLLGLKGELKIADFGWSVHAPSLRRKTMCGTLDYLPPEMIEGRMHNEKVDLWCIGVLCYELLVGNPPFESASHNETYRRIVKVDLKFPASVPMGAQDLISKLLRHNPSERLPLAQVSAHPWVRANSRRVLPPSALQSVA
T2 sequence (Q9NQS7 803-918 partner limits assumed): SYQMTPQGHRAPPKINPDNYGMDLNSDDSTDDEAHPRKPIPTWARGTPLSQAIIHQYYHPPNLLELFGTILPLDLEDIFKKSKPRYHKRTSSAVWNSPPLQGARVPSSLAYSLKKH
T3 sequence (P35968 20-1356): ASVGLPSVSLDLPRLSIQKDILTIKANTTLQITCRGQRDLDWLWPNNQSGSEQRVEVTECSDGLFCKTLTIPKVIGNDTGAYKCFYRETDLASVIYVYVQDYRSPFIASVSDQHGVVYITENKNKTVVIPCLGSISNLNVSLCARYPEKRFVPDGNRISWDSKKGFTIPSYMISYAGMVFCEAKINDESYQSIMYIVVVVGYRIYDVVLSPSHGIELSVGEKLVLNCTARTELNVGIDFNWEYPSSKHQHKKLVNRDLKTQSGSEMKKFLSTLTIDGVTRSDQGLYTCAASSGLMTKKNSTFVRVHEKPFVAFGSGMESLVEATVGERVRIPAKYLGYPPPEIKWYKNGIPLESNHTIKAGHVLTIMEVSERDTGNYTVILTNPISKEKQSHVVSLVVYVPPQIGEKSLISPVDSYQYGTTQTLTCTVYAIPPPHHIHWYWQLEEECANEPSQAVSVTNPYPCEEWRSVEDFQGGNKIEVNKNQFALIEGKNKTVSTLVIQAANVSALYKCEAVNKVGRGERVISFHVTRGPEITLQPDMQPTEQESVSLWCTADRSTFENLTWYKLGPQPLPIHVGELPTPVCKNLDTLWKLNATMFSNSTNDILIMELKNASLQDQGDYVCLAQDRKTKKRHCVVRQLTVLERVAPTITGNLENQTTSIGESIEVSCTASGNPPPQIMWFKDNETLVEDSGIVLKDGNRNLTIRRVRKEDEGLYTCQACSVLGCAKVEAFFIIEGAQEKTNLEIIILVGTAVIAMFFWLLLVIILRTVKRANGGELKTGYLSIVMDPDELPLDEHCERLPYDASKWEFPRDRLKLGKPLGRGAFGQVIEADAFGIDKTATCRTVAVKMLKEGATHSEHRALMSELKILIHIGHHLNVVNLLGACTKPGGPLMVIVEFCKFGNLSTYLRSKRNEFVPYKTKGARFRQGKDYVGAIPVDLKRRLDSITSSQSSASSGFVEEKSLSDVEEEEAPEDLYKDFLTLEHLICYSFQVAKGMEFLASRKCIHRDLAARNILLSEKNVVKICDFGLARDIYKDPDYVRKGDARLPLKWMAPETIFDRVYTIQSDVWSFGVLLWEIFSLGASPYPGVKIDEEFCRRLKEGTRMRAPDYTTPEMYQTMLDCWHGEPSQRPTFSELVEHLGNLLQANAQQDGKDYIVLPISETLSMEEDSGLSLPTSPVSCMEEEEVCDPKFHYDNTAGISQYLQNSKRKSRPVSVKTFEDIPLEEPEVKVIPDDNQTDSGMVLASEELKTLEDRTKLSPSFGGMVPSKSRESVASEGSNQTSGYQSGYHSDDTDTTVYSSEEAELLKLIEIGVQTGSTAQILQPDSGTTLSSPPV

## COc1ccc(CN2C3CC2CN(c2ccc(-c4cc(-c5ccc(C(C)(C)NC(C)=O)cn5)cn5ncc(C#N)c45)cn2)C3)cn1 [Example 12, N-(2-(6-(3-cyano-4-(6-(6-((6-methoxypyridin-3-yl)methyl)-3,6-diazabicyclo[3.1.1]heptan-3-yl)pyridin-3-yl)pyrazolo[1,5-a]pyridin-6-yl)pyridin-3-yl)propan-2-yl)acetamide]
BAF3-KIF5B-RET cells
  GI50: 1 nM
Human Aurora B kinase
  pIC50: 7.60
Human KDR kinase
  pIC50: 8.70
